Data as given in US9511080B2, “Okadaella gastrococcus and cancer” (Okada Medical Services Pty Ltd, priority 2009, dated 2016).

Tests used:
[1] = system: Okadaella gastrococcus (Og) isolates; assay: In vitro antibiotic sensitivity of Og (E-tests and diffusion disc tests); assay type: cell-based; details: for Og can be treated using antibiotic (in vitro assays): 25 Og isolates from gastric mucosal biopsy specimens
Description: Twenty-five Og isolates were obtained from gastric mucosal biopsy specimens. E-tests and diffusion disc tests were performed under microaerophilic condition (Oxygen 5%, CO2 10%, and Nitrogen 85%) utilizing. 5% horse blood agar, except metronidazole which was tested under anaerobic condition. Antibiotic sensitivity was read 72 hours after incubation. Randomly selected isolates were also examined under TEM to confirm the ultrastructure of Og. Results: Og was sensitive to various antibiotics, in particular to the penicillins, the cephalosporins, the quinolones, and chloramphenicol.

[2] = system: intestinal metaplasia of the gastric mucosa; details: co-administered with Hp eradication therapy (Walker, 2003); cited from earlier work

| Structure (SMILES) | Og can be treated using antibiotic (in vitro assays) [1] | Effect on intestinal metaplasia of the gastric mucosa [2] | Antibiotic sensitivity of Og ([1]; E-tests and diffusion disc tests, microaerophilic, 5% horse blood agar, read 72 hours after incubation) |
| --- | --- | --- | --- |
| CC1(C)S[C@@H]2[C@H](NC(=O)[C@H](N)c3ccccc3)C(=O)N2[C@H]1C(=O)O [ampicillin] | can be treated |  |  |
| O=C1O[C@H]([C@@H](O)CO)C(O)=C1O [ascorbic acid] |  | significantly resolved the intestinal metaplasia |  |
| CO/N=C(\C(=O)N[C@@H]1C(=O)N2C(C(=O)O)=C(COC(C)=O)CS[C@H]12)c1csc(N)n1 [cefotaxime] | can be treated |  |  |
| O=C(N[C@H](CO)[C@H](O)c1ccc([N+](=O)[O-])cc1)C(Cl)Cl [chloramphenicol] | can be treated |  | sensitive |
| O=C(O)c1cn(C2CC2)c2cc(N3CCNCC3)c(F)cc2c1=O [ciprofloxacin] | can be treated |  |  |
| COc1c(N2CCNC(C)C2)c(F)cc2c(=O)c(C(=O)O)cn(C3CC3)c12 (stereo not shown) [gatifloxacin] | can be treated |  |  |
